Read-outs that look alike come from different tables or passages of the source.
Target: T1, PPARγ (Homo sapiens, UniProt P37231)
T1 construct: expressed in transfected cells
T1 sequence (P37231 238-503 limits assumed): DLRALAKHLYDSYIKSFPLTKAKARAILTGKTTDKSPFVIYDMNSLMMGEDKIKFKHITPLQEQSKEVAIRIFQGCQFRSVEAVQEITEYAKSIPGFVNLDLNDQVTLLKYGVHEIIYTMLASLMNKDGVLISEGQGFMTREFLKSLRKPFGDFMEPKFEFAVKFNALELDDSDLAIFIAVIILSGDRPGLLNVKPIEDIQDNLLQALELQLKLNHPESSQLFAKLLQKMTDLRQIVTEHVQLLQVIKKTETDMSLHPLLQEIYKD
Experiment: cell-based chimeric receptor transcription assay (PPAR ligand binding domain fused to GAL4 DNA binding domain, GAL4-regulated luciferase reporter)
Conditions: for RE: RE Conc. 16 μM
Method: To determine if these compounds can activate PPARγ or the members of the PPAR family of nuclear receptors (PPARα and PPARδ), the ability of these compounds to activate PPAR receptors in a cell-based chimeric receptor transcription assay were tested. This is a standard nuclear receptor ligand activity assay that utilizes the ligand binding domain of the PPAR receptor fused to a heterologous GAL4 DNA binding domain. The transcriptional read-out is from a GAL4-regulated luciferase reporter. In this assay, compounds that activate the receptor cause an increase in luciferase activity measured in a luminometer. The data are shown in Table 1 below (average luciferase values from transcription assay).

[1] = 1.02 μM conc., * above background
[2] = 2.6 μM conc., * above background
[3] = 6.4 μM conc., * above background
[4] = 16 μM conc., * above background
[5] = 40 μM conc., * above background
[6] = calculated EC50, PPARγ agonist assay, Table 2, read-out: EC50
[7] = read-out: activation of PPARγ, potency (EC50)

SMILES	average luciferase values from transcription assay (0.16 μM conc.)	average luciferase values from transcription assay (0.41 μM conc.)	average luciferase values from transcription assay [1]	average luciferase values from transcription assay [2]	average luciferase values from transcription assay [3]	average luciferase values from transcription assay [4]	average luciferase values from transcription assay [5]	RE	EC50 [6]	EC50 [7]
CC/C=C\C/C=C\C/C=C\C/C=C\C/C=C\C/C=C\CCCC1SC(=O)NC1=O (centres unmarked) [DHA-TZ, 5-((4Z,7Z,10Z,13Z,16Z,19Z)-docosa-4,7,10,13,16,19-hexaenyl)thiazolidine-2,4-dione]	106	145	167*	207*	623*	1454*	1868*	1354	9.7 µM	10 µM
CC/C=C\C/C=C\C/C=C\C/C=C\C/C=C\CCCCC1SC(=O)NC1=O (centres unmarked) [EPA-TZ, 5-((5Z,8Z,11Z,14Z,17Z)-eicosa-5,8,11,14,17-pentaenyl)thiazolidine-2,4-dione]	128	123	164*	297*	705*	1416*	48^	1316	–	12 µM
CC/C=C\C/C=C\C/C=C\C/C=C\C/C=C\CCCC(=O)OCC [EPA Et Ester, eicosapentaenoic acid ethyl ester, reference compound]	–	–	–	–	–	–	–	–	> 100 µM	–
